As a reminder, the inhibition is the change of the read-out against control, counted positive when it falls.

Structures can show the parent of a compound that is named as a salt.

T1 sequence (P23975 whole entry): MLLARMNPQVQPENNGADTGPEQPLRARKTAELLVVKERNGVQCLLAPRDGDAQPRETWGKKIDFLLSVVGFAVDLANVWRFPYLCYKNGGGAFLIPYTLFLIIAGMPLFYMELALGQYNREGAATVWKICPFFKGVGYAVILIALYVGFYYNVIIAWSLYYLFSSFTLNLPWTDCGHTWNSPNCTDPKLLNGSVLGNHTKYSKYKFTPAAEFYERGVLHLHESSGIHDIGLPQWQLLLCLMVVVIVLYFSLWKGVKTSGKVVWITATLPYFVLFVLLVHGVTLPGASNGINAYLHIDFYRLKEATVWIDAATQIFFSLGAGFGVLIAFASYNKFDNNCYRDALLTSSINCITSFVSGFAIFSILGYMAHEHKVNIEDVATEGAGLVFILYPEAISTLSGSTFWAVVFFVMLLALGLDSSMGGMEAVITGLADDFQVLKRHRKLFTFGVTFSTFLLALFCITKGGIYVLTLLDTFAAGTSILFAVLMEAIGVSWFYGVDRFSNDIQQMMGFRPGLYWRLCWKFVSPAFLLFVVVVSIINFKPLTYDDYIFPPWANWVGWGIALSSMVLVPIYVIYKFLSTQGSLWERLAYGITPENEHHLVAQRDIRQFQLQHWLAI

The test addresses T1, hNET (Homo sapiens, UniProt P23975).
T1 construct: expressed in transfected cells; host or cells: MDCK-Net6 (MDCK cells stably transfected with hNET)
The test is described as follows: Norepinephrine (NE) uptake assay in MDCK-Net6 cells. Type of test: cell-based. Conditions: 1 μM test compound; MDCK-Net6 cells stably transfected with human hNET; [3H]NE uptake. As to the method:
Cells were plated at 300,000 T75 flask and cells were split twice weekly. […] Cells were plated at 250,000 cells/T75 flask and split twice weekly.
On day 1, cells were plated at 3,000 cells/well in growth medium and maintained in a cell incubator (37° C., 5% CO2). On day 2, growth medium was replaced with […] of assay buffer (25 mM HEPES; 120 mM NaCl; 5 mM KCl; 2.5 mM CaCl2; 1.2 mM MgSO4; 2 mg/ml glucose (pH 7.4, 37° C.)) containing 0.2 mg/ml ascorbic acid and […]. Plates containing cells with […] of assay buffer were equilibrated for 10 minutes at 37° C. prior to addition of compounds. A stock solution of desipramine was prepared in DMSO (10 mM) and delivered to triplicate wells containing cells for a final test concentration of 1 μM. Data from these wells were used to define non-specific NE uptake (minimum NE uptake). Test compounds were prepared in DMSO (10 mM) and diluted in assay buffer according to test range (1 to 10,000 nM). Twenty-five microliters of assay buffer (maximum NE uptake) or test compound were added directly to triplicate wells containing cells in 200 μl of assay buffer. The cells in assay buffer with test compounds were incubated for 20 minutes at 37° C. To initiate the NE uptake, [^3H]NE diluted in assay buffer (120 nM final assay concentration) was delivered in 25 μl aliquots to each well and the plates were incubated for 5 minutes (37° C.). The reaction was terminated by decanting the supernatant from the plate. The plates containing cells were washed twice with 200 μl assay buffer (37° C.) to remove free radioligand. The plates were then inverted, left to dry for 2 minutes, then reinverted and air-dried for an additional 10 minutes. The cells were lysed in 25 μl of 0.25 N NaOH solution (4° C.), placed on a shake table and vigorously shaken for 5 minutes. After cell lysis, 75 μl of scintillation cocktail was added to each well and the plates were sealed with film tape. The plates were returned to the shake table and vigorously shaken for a minimum of 10 minutes to ensure adequate partitioning of organic and aqueous solutions. The plates were counted in a Wallac Microbeta counter (PerkinElmer) to collect the raw cpm data.
For each experiment, a data stream of cpm values collected from the Wallac Microbeta counter was downloaded to a Microsoft Excel statistical application program. Calculations of EC50 values were made using the transformed-both-sides logistic dose response program written by Wyeth Biometrics Department.
`Cc1cccc(N(C)[C@@H](c2ccccc2)[C@H](O)CN)c1` (racemic) [Example 2, (1RS,2SR)-3-amino-1-[methyl(3-methylphenyl)amino]-1-phenylpropan-2-ol hydrochloride] displayed an inhibition at 1 µM of 92%. Next, `CN(c1ccccc1Cl)[C@@H](c1ccccc1)[C@H](O)CN` (racemic) [Example 3, (1RS,2SR)-3-amino-1-[(2-chlorophenyl)(methyl)amino]-1-phenylpropan-2-ol hydrochloride]: 45%; `COc1cccc(N(C)[C@@H](c2ccccc2)[C@H](O)CN)c1` (racemic) [Example 4, (1RS,2SR)-3-amino-1-[(3-methoxyphenyl)(methyl)amino]-1-phenylpropan-2-ol hydrochloride]: 86%; `COc1ccc([C@@H]([C@H](O)CN)N(C)c2ccc(Cl)cc2)cc1` (racemic) [Example 6, (1RS,2SR)-3-amino-1-[(4-chlorophenyl)(methyl)amino]-1-(4-methoxyphenyl)propan-2-ol hydrochloride]: 92%. Next, `CNC[C@@H](O)[C@H](c1cccc(F)c1)N(C)c1ccc(Cl)cc1` (racemic) [Example 23, (1RS,2SR)-1-[(4-chlorophenyl)(methyl)amino]-1-(3-fluorophenyl)-3-(methylamino)propan-2-ol hydrochloride]: 99%. The same measure for `CNC[C@@H](O)[C@H](c1ccc(OC)cc1)N(C)c1cccc(F)c1` (racemic) [Example 24, (1RS,2SR)-1-[(3-fluorophenyl)(methyl)amino]-1-(4-methoxyphenyl)-3-(methylamino)propan-2-ol hydrochloride]: 92%; for `CNC[C@@H](O)[C@H](c1ccc(OC)cc1)N(C)c1ccc(Cl)cc1` (racemic) [Example 25, (1RS,2SR)-1-[(4-chlorophenyl)(methyl)amino]-1-(4-methoxyphenyl)-3-(methylamino)propan-2-ol hydrochloride]: 97%; for `CNC[C@@H](O)[C@H](c1ccc(OC)cc1)N(C)c1ccc(OC)cc1` (racemic) [Example 26, (1RS,2SR)-1-(4-methoxyphenyl)-1-[(4-methoxyphenyl)(methyl)amino]-3-(methylamino)propan-2-ol hydrochloride]: 75%. In turn, `CCNC[C@@H](O)[C@H](c1ccccc1)N(C)c1ccc(C)cc1` (racemic) [Example 28, (1RS,2SR)-3-(ethylamino)-1-[methyl(4-methylphenyl)amino]-1-phenylpropan-2-ol hydrochloride] showed an inhibition at 1 µM of 71%. As for `CCNC[C@@H](O)[C@H](c1ccc(OC)cc1)N(C)c1ccc(Cl)cc1` (racemic) [Example 29, (1RS,2SR)-1-[(4-chlorophenyl)(methyl)amino]-3-(ethylamino)-1-(4-methoxyphenyl)propan-2-ol hydrochloride], at 1 µM the inhibition was 95%.

`CCNC[C@@H](O)[C@H](c1cccc(Cl)c1)N(C)c1ccccc1` (racemic) [Example 30, (1RS,2SR)-1-(3-chlorophenyl)-3-(ethylamino)-1-[methyl(phenyl)amino]propan-2-ol hydrochloride]: the inhibition at 1 µM was 56%. The same measure for `CCNC[C@@H](O)[C@H](c1ccc(Cl)cc1)N(C)c1ccccc1` (racemic) [Example 31, (1RS,2SR)-1-(4-chlorophenyl)-3-(ethylamino)-1-[methyl(phenyl)amino]propan-2-ol hydrochloride]: 88%; for `Cc1ccc(N(C)[C@@H](c2ccccc2)[C@H](O)CN(C)C)cc1` (racemic) [Example 32, (1RS,2SR)-3-(dimethylamino)-1-[methyl (4-methylphenyl)amino]-1-phenylpropan-2-ol hydrochloride]: 95%.

For the origin of these results see patent US7671238B2, “Arylamino-arylpropanolamine derivatives and methods of their use” (Wyeth LLC, priority 2006, dated 2010).
